Marks after values point to notes of the source that are not given here. Bounds are passed on as bounds.

Series [1] concerns DLD-1 cell (human colorectal cancer cell line in which PRL-3 is over-expressed). Briefly: In vitro cell migration, trans-well assay. Format: cell-based. The settings on record: for inhibitory activity against cell migration for colorectal cancer cell line: DLD-1, compared with control sample of 0.1% DMSO, FIG. 4. The procedure:
In order to analyze inhibitory activity against in vitro cell migration of the benproperine derivative according to the present invention, after DLD-1 cell (ATCC-CCL-221), which is the human colorectal cancer cell lines in which PRL-3, cancer metastasis-related genes, is over-expressed, was grown around by 90% on the culture plate containing RPMI medium, the medium was removed and the cell was washed with PBS. The washed cell was processed with trypsin-EDTA, cultured CO2 incubator at 37° C. for […], and then detached. The resultant cells in which 10% FBS-containing RPMI medium was added were collected in the falcon tube and the medium was removed by centrifugation. The process in which FBS-free RPMI medium were added in the obtained cells and the medium was removed by centrifugation was repeated twice. After the obtained cells in which FBS-free RPMI medium was added were suspended, the number of cells was counted using a hemocytometer.
The cells of 8×10^4 cells/200 μl were added to trans-wells which were placed on 24-well plates. FBS-free RPMI medium of 500 μl was added using the empty space where trans-wells were placed on well plates and cultured in a CO2 incubator at 37° C. for 12 to 16 hours. After the medium has been removed by placing trans-wells upside down on hand towel following culture, crystal violet of 500 μl (20% MeOH in 5 mg/ml) was added to each well of 24-well plates and trans-wells were put in a CO2 incubator for 30 minutes. Stained trans-wells were washed with PBS and placed upside down on hand towel so that the remaining solution was impregnated. Membrane was placed on the cover slip with the side where the cells didn't move facing upwards and wiped well with a cotton swab. The cover slip on whose edges nail polish was applied a little was put on a slide glass and fixed. The prepared sample was photographed with an inverted microscope (TE 300, Nikon, Japan) equipped with digital camera and the number of cells having moved was counted.
Inhibitory activity against cell migration of benproperine and pharmaceutically acceptable salt thereof in Formulas 2 to 4 according to the present invention was observed by the above method, and inhibition rate was calculated by the Mathematical Equation 1.
Wherein the control sample was observed by adding 0.1% dimethyl sulfoxide (DMSO) only without addition of the compound in the present invention.

The test system of series [2] is vascular endothelial cell HUVECs. As to the kind of experiment: In vitro endothelial morphogenesis assay (tube formation on Matrigel). Format: cell-based, human. The settings on record: 24 hours, FIG. 6. The procedure: Specifically, HUVECs (ATCC-CRL-2873) was brought into the starvation state by culturing in a serum-free medium overnight. Matrigel matrix (BD biosciences) of 0.2 ml was added in each well of 24-well plates and placed in the 37° C. incubator for 1 hour to coat the surface of well. 0.2 ml 2×10^4 cells prepared in the above were added to each well coated with Matrigel matrix and cultured in a CO2 incubator for 30 minutes. After culture, fresh medium containing benproperine of 1, 5, and 10 μM concentration was added in each well followed by the addition of 1% serum and cultured in a CO2 incubator for 24 hours. After culture, the degree of inhibitory activity against HUVECs tube formation of benproperine was observed under a microscope.

Series [3] concerns B16F10 human melanoma cells. As to the kind of experiment: In vivo metastasis of cancer, melanoma cells inoculated to tail vein, lung colony count. The arrangement: species or system C57BL/6 mouse. The settings on record: 50 mg/kg intraperitoneally once a day, 14 times in total; for Inhibition rate (%) of metastasis: compared with control group, p < 0.001. As to the method:
In order to analyze inhibitory activity against in vivo cell migration of benproperine according to the present invention, inhibitory activity against metastasis of cancer of benproperine was analyzed using tumor model where melanoma cells are transplanted.
Specifically, B16F10 […] melanoma cell line (ATCC-CRL-6475) was inoculated to DMEM (GIBCO, USA) medium containing 10% FBS (GIBCO, USA), and cultured at 5% CO2, 37° C. 7-week-old female specific pathogen free (SPF) C57BL/6 mouse was adapted to the laboratory environment by supplying enough antibiotic-free pellet feed (Samyang feed Inc., South Korea) and sterilized tap water, and then used in the experiment.
Cultured B16F10 […] melanoma cells were suspended in PBS 200 μl at the concentration of 2×10^6 cells/ml, and inoculated […] to tail vein of the above mouse using a 26 gauge needle. After 3 hours of inoculation, the mice were divided into two groups in which the control group treated with sterile distilled water and the experimental group was intraperitoneally administered with benproperine of 50 mg/kg once a day, 14 times in total. The administration continued for 13 consecutive days, and then stopped. On day after the administration, autopsy was performed to the mouse of each group to extract the lung, and the number of colonies of metastasized cancer cells (melanoma cells) was counted.

The subject of series [4] is melanoma cell line B16F10. As to the kind of experiment: In vitro cell migration, trans-well assay. Format: cell-based, mouse. The note with it: 10 μM, B16F10, FIG. 5.
Series [5] is described as follows: In vitro cell migration, trans-well assay. Format: cell-based, human. The note with it: 10 μM, A375P, FIG. 5.
The test system of series [6] is pancreatic cancer cell line AsPc-1 cells. Briefly: In vitro cell migration, trans-well assay. Format: cell-based, human. The settings on record: 10 μM, AsPc-1, FIG. 5.
A short description of series [7]: Acute toxicity experiment of oral administration to rats. The settings on record: rat, in vivo, 1000 mg/kg. As to the method: In order to identify the toxicity of benproperine and pharmaceutically acceptable salt thereof according to the present invention, acute toxicity experiment was performed with laboratory animal as the subject as follow.
After 6-week-old specific pathogen free (SPF) SD bred rats were divided into groups of 2 specimens, and were orally administered once with benproperine which was prepared in Reference Example 1 and dissolved in injectable distilled water with a dose of 1000 mg/kg.

Series [8] relates to DLD-1 cell (human colorectal cancer cell line in which PRL-3 is over-expressed). Briefly: Cytotoxicity of benproperine, WST-1 assay. Format: cell-based. The settings on record: DLD-1 cells, 48 hours, up to 10 μM, WST-1 absorbance at 450 nm, FIG. 2. The procedure:
In order to examine the cytotoxicity of the benproperine derivative prepared in Reference Example 1, after DLD-1 cell (ATCC-CCL-221), which is the human colorectal cancer cell lines in which PRL-3 cancer metastasis-related genes is over-expressed, was cultured in the RPMI culture medium containing 10% fetal bovine serum (FBS) and maintained at 37° C., 5% CO2, the cell was detached using 0.05% trypsin-EDTA. 4×10^3 cells which were calculated by hemocytometer were inoculated in each well of 96-well plates medium containing 10% FBS, and cultured in 37° C. incubator containing 5% CO2. After 24 hours, the culture medium of each well was replaced with new medium containing control (0.1% DMSO) and benproperine in Formula 2, which was prepared in Reference Example 1, by concentration (5 to 10 μM) and replace it with a new medium, and was cultured in 37° C., 5% CO2 incubator for 48 hours. After WST-1 (Roche) of 10 μl was added in each well of the above plate followed by 2 hours of culture, absorbance was measured at 450 nm using ELISA reader (Bio-Rad).
(In general: Tetrazolium dyes change colour on reduction, which living cells bring about.)

Series [9] can be described thus: Weight change in the AsPC-1 metastasis model (toxicity). Format: in vivo, BALB/C nude mouse. The settings on record: 50 and 100 mg/kg orally, five times a week, total of 20 times, FIG. 7. The procedure: To be specific, the human-derived pancreatic cancer cell line AsPC-1 (adenocarcinoma; Pancrease cancer) had been stored frozen in liquid nitrogen and it was thawed and cultured in CO2 incubator (Form a, USA) with 5% CO2 at 37° C. Specific-pathogen-free (SPF) BALB/C nude mouse (orient, Korea) was used in this experiment.
The cultured cells were collected and diluted to a cell concentration of 5×10^6 cells/ml by adding serum free media. Then, the animal model was prepared by intravenous administration of 0.2 ml of the cell culture to each mouse. Subsequently, 5 mg/ml of benproperine phosphate (MD-164) (KRIBB, Korea) was prepared by dissolving it in 0.5% Tween80 and orally administered to the mouse at a dose of 10 ml/kg five times a week, for a total of 20 times.
First, in order to analyze the toxicity of benproperine phosphate, the weight of all test groups was measured prior to administration of the compound, three times a week during the test period.

For series [10], the system named is human-derived pancreatic cancer cell line (AsPC-1). Briefly: In vivo metastasis of cancer, AsPC-1 transplanted in caudal vein, bioluminescence imaging. The settings on record: 50 mg/kg orally, 28th day after drug administration, lung, FIG. 8. The arrangement: species or system BALB/C nude mouse. The source says: In order to examine the in vivo inhibitory activity of the salt of benproperine of the present invention against metastasis of cancer, the inhibitory activity of benproperine phosphate (MD-164) against metastasis of cancer and toxicity of the same were examined by using the animal model which was transplanted with human-derived pancreatic cancer cell line (AsPC-1) in caudal vein.
To be specific, the human-derived pancreatic cancer cell line AsPC-1 (adenocarcinoma; Pancrease cancer) had been stored frozen in liquid nitrogen and it was thawed and cultured in CO2 incubator (Form a, USA) with 5% CO2 at 37° C. Specific-pathogen-free (SPF) BALB/C nude mouse (orient, Korea) was used in this experiment. […]
Secondly, in order to establish an animal model of pulmonary metastases, luciferase stably expressing AsPC-1 cell line was transplanted into a tail vein of mouse at a dose of 1×10^6 cells/mouse. […] The bioluminescence value was measured for equal area of each mouse subject, and the metastasis inhibition rate (%) in the group administered with benproperine phosphate was determined compared to a control group by the Mathematical Equation 2.
On the 28th day after drug administration, the lung of animal model was collected, the number of colony was measured, and imaging signal (photone/s/sr) was also measured.

As to `CC(COc1ccccc1Cc1ccccc1)N1CCCC(O)C1` (centres unmarked) [3-hydroxybenproperine], the “inhibitory activity against cell migration for colorectal cancer cell line” value (shortened to “inhibitory activity”) in [1] is reported as “inhibit effectively”.

Take `CC(COc1ccccc1Cc1ccccc1)N1CCCCC1` (centres unmarked) [benproperine]: the “inhibition of tube formation of HUVECs” value in [2] (10 μM, compared to DMSO-treated control group) is “significantly”; in series [2] (1, 5 and 10 μM), “concentration-dependent manner”. In addition, the “Inhibition rate (%) of metastasis” value in [3] is 45.1%; in [3] (listed as Benproperine), 45.1* %. In series [3] (negative control 106 ± 23.3), the “Number of lung colony (average ± SD)” value was determined as 58.2 ± 25.8. For the same compound, the “cell migration compared with DMSO-treated sample” value in series [4] is “prominently inhibited”; in series [1] (10 μM, DLD-1, FIG. 5) it was “prominently inhibited”; in series [5], “prominently inhibited”; in [6] it was “prominently inhibited”. The “inhibitory activity” value in [1] is reported as “inhibit effectively”. In [1] (Homo sapiens, 5 μM, DLD-1, control 0.1% DMSO, FIG. 3, read-out: inhibition of migration of colorectal cancer cell compared to control), the inhibition at 5 µM is over 80%. Moreover, the inhibition at 10 µM in series [1] (Homo sapiens, 10 μM, DLD-1, control 0.1% DMSO, FIG. 3, read-out: inhibition of migration of colorectal cancer cell compared to control) is over 90%. In series [7] (Sprague-Dawley (SD), rats, single oral administration, read-out: minimum lethal dose (LD50) for oral administration), the LD50 was over 1000 mg/kg. In series [7] (po), the “clinical symptoms, death, or weight changes” value is given as “not observed”. Moreover, the “toxic change (hematological examination, biochemical examination of blood, autopsy)” value in [7] (po) is “no toxic change”. In addition, the cytotoxicity entry in [8] was “no cytotoxicity”.

Consider benproperine phosphate, for which, in [9], the “weight loss in comparison to a control group” value is on record as “no significant weight loss”. Further, in series [10], the “inhibition rate against metastasis compared to a control group” value stood at 71.5%.

As to `CC(COc1ccccc1Cc1ccccc1O)N1CCCCC1` (centres unmarked) [2-hydroxybenproperine], the “inhibitory activity” value in [1] is listed as “inhibit effectively”.

Values taken from patent US8716288B2, “Composition comprising benproperine derivatives as active ingredients for preventing and treating angiogenesis-related diseases” (Korea Research Institute of Bioscience and Biotechnology, priority 2010, dated 2014).
